# Measured values published in patent US8901118B2, “Compounds and methods for kinase modulation, and indications therefor” (Plexxikon Inc., priority 2010, dated 2014).
# What was measured:
# c-Kit kinase = c-Kit kinase (Homo sapiens, UniProt P10721); experiment: c-Kit kinase biochemical activity assay (AlphaScreen, biotin-(E4Y)10 phosphorylation); details: 100 μM ATP; read-out: Biochemical Inhibition IC50 Kit
# Summary of the method: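 AlphaScreen read-out (streptavidin donor, anti-phosphotyrosine PY20 acceptor beads, EDTA stop) of c-Kit activity. Reaction: 0.75 ng kinase, 100 µM ATP, 30 nM biotin-(E4Y)10, 25 mM HEPES pH 7.5, 2 mM MgCl2, 2 mM MnCl2, 5% DMSO, 1 h room temperature. IC50 derived over an 8-point, two-fold dilution series.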
# BCR-KIT BaF3 cells = molecular target: T1, BCR-KIT BaF3 cells (Homo sapiens, UniProt P10721); experiment: BaF3 BCR-KIT cell proliferation assay (ATPlite); format: cell-based; details: read-out: Inhibition of Cell Proliferation IC50, BCR/BaF3 Kit
# T1 construct: fused on or other part: P11274 (Breakpoint cluster region protein)
# T1 sequence (P10721 589-937): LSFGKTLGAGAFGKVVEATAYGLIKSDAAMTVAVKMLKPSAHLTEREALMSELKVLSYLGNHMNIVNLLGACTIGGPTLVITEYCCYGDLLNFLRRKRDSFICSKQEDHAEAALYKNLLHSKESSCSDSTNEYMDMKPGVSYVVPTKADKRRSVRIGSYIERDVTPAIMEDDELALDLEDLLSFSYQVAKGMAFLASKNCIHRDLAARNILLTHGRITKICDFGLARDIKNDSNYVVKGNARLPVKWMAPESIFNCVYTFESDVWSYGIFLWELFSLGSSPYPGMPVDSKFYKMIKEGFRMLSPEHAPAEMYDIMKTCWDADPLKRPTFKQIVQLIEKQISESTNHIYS
# Summary of the method: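 Proliferation was run for 3 days at 37 °C against 8-point 1:3 titrations with 10 μM as the top final concentration. Seeding was 10,000 cells/well for BaF3 BCR-fusion lines, grown without IL-3, and 25,000 cells/well for MV-4-11. IC50 was derived from ATPlite luminescence read as cell number.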
# Sequence of c-Kit kinase (P10721 26-976): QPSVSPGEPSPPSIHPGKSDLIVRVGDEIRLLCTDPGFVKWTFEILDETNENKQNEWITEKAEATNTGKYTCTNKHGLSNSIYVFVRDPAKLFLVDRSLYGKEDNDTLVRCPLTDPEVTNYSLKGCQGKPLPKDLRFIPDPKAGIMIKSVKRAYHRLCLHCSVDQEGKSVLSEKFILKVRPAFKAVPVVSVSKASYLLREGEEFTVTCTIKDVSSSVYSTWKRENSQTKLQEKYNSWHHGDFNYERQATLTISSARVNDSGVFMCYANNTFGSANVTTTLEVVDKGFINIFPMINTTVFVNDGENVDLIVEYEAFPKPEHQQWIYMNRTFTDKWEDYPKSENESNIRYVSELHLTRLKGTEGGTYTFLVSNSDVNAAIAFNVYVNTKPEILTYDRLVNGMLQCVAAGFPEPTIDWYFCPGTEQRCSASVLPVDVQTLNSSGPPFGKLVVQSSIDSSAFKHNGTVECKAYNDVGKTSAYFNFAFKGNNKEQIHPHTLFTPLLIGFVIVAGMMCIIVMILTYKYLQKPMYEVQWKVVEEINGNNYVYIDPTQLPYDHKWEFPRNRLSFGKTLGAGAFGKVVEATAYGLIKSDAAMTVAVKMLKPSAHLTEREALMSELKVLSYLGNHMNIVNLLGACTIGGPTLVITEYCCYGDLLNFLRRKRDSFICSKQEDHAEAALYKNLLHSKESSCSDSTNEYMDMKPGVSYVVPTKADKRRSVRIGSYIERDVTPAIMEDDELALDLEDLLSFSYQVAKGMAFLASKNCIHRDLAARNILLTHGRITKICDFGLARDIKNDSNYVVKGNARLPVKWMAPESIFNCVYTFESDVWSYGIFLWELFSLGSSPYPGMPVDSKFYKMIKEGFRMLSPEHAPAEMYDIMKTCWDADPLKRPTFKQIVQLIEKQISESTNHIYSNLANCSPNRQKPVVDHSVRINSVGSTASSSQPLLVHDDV
Compound,IC50 (c-Kit kinase) [nM],IC50 (BCR-KIT BaF3 cells) [nM]
"Clc1cnc2[nH]cc(Cc3cnc(NC4CCCCC4)nc3)c2c1 [Compound P-3001, [5-(5-chloro-1H-pyrrolo[2,3-b]pyridin-3-ylmethyl)-pyrimidin-2-yl]-cyclohexyl-amine]",< 1000,> 1000
"Clc1cnc2[nH]cc(Cc3cnc(NC4CCCC4)nc3)c2c1 [Compound P-3003, [5-(5-Chloro-1H-pyrrolo[2,3-b]pyridin-3-ylmethyl)-pyrimidin-2-yl]-cyclopentyl-amine]",> 1000,> 1000
FC1(F)CCC(Nc2ncc(Cc3c[nH]c4ncc(Cl)cc34)cn2)CC1 [Compound P-3004],< 1000,> 1000
"Clc1cnc2[nH]cc(Cc3cnc(NC4CC4)nc3)c2c1 [Compound P-3005, [5-(5-Chloro-1H-pyrrolo[2,3-b]pyridin-3-ylmethyl)-pyrimidin-2-yl]-cyclopropyl-amine]",> 1000,> 1000
"Clc1cnc2[nH]cc(Cc3cnc(NC4CCCCCC4)nc3)c2c1 [Compound P-3006, [5-(5-Chloro-1H-pyrrolo[2,3-b]pyridin-3-ylmethyl)-pyrimidin-2-yl]-cycloheptyl-amine]",< 1000,> 1000
"COc1ccccc1Nc1ncc(Cc2c[nH]c3ncc(Cl)cc23)cn1 [Compound P-3016, [5-(5-Chloro-1H-pyrrolo[2,3-b]pyridin-3-ylmethyl)-pyrimidin-2-yl]-(2-methoxy-phenyl)-amine]",< 100,> 1000
"Fc1cccc(Nc2ncc(Cc3c[nH]c4ncc(Cl)cc34)cn2)c1 [Compound P-3017, [5-(5-Chloro-1H-pyrrolo[2,3-b]pyridin-3-ylmethyl)-pyrimidin-2-yl]-(3-fluoro-phenyl)-amine]",< 1000,> 1000
"Cc1cnc2[nH]cc(Cc3cnc(Nc4ccc(C(F)(F)F)nc4)nc3)c2c1 [Compound P-3018, [5-(5-Methyl-1H-pyrrolo[2,3-b]pyridin-3-ylmethyl)-pyrimidin-2-yl]-(6-trifluoromethyl-pyridin-3-yl)-amine]",< 10,< 100
"COc1ccc(Nc2ccc(Cc3c[nH]c4ncc(C)cc34)c(F)n2)cn1 [Compound P-3019, [6-fluoro-5-(5-methyl-1H-pyrrolo[2,3-b]pyridin-3-ylmethyl)-pyridin-2-yl]-(6-methoxy-pyridin-3-yl)-amine]",< 1000,< 1000
"COc1ccc(Nc2ncc(Cc3c[nH]c4ncc(C)cc34)cn2)cn1 [Compound P-3020, (6-Methoxy-pyridin-3-yl)-[5-(5-methyl-1H-pyrrolo[2,3-b]pyridin-3-ylmethyl)-pyrimidin-2-yl]-amine]",< 10,< 100
"COc1ccc(Nc2ncc(Cc3c[nH]c4ncc(C)cc34)cn2)cc1 [Compound P-3021, (4-Methoxy-phenyl)-[5-(5-methyl-1H-pyrrolo[2,3-b]pyridin-3-ylmethyl)-pyrimidin-2-yl]-amine]",< 10,< 100
"COc1cc(Nc2ncc(Cc3c[nH]c4ncc(C)cc34)cn2)ccc1F [Compound P-3022, (4-Fluoro-3-methoxy-phenyl)-[5-(5-methyl-1H-pyrrolo[2,3-b]pyridin-3-ylmethyl)-pyrimidin-2-yl]-amine]",< 100,< 100
"COc1ccc(Nc2ncc(Cc3c[nH]c4ncc(C)cc34)cn2)cc1F [Compound P-3023, (3-Fluoro-4-methoxy-phenyl)-[5-(5-methyl-1H-pyrrolo[2,3-b]pyridin-3-ylmethyl)-pyrimidin-2-yl]-amine]",< 100,< 100
"CCCOc1ccc(Nc2ncc(Cc3c[nH]c4ncc(C)cc34)cn2)cc1 [Compound P-3024, [5-(5-Methyl-1H-pyrrolo[2,3-b]pyridin-3-ylmethyl)-pyrimidin-2-yl]-(4-propoxy-phenyl)-amine]",< 10,< 100
"CCc1ccc(Nc2ncc(Cc3c[nH]c4ncc(C)cc34)cn2)cc1 [Compound P-3025, (4-Ethyl-phenyl)-[5-(5-methyl-1H-pyrrolo[2,3-b]pyridin-3-ylmethyl)-pyrimidin-2-yl]-amine]",< 10,< 10
"CCOc1ccc(Nc2ncc(Cc3c[nH]c4ncc(C)cc34)cn2)cc1 [Compound P-3026, (4-Ethoxy-phenyl)-[5-(5-methyl-1H-pyrrolo[2,3-b]pyridin-3-ylmethyl)-pyrimidin-2-yl]-amine]",< 10,< 100
"CCOc1ccc(Nc2ncc(Cc3c[nH]c4ncc(C)cc34)cn2)cn1 [Compound P-3027, (6-Ethoxy-pyridin-3-yl)-[5-(5-methyl-1H-pyrrolo[2,3-b]pyridin-3-ylmethyl)-pyrimidin-2-yl]-amine]",< 10,< 100

Compound,IC50 (c-Kit kinase) [nM],IC50 (BCR-KIT BaF3 cells) [nM]
"Cc1cnc2[nH]cc(Cc3cnc(Nc4cc(-c5ccc(F)cc5)n[nH]4)nc3)c2c1 [Compound P-3028, [5-(4-Fluoro-phenyl)-2H-pyrazol-3-yl]-[5-(5-methyl-1H-pyrrolo[2,3-b]pyridin-3-ylmethyl)-pyrimidin-2-yl]-amine]",< 1000,< 100
"Cc1cnc2[nH]cc(Cc3cnc(Nc4cc(C(C)(C)C)n[nH]4)nc3)c2c1 [Compound P-3029, (5-tert-Butyl-2H-pyrazol-3-yl)-[5-(5-methyl-1H-pyrrolo[2,3-b]pyridin-3-ylmethyl)-pyrimidin-2-yl]-amine]",< 1000,< 1000
"Cc1cnc2[nH]cc(Cc3cnc(Nc4ccc(C(C)(C)C)cc4)nc3)c2c1 [Compound P-3030, (4-tert-Butyl-phenyl)-[5-(5-methyl-1H-pyrrolo[2,3-b]pyridin-3-ylmethyl)-pyrimidin-2-yl]-amine amine]",< 100,< 10
"Cc1cnc2[nH]cc(Cc3cnc(Nc4ccc(C(O)(C(F)(F)F)C(F)(F)F)cc4)nc3)c2c1 [Compound P-3031, 1,1,1,3,3,3-Hexafluoro-2-{4-[5-(5-methyl-1H-pyrrolo[2,3-b]pyridin-3-ylmethyl)-pyrimidin-2-ylamino]-phenyl}-propan-2-ol]",< 100,< 10
"Cc1cnc2[nH]cc(Cc3cnc(Nc4cc(C5CC5)n[nH]4)nc3)c2c1 [Compound P-3032, (5-Cyclopropyl-2H-pyrazol-3-yl)-[5-(5-methyl-1H-pyrrolo[2,3-b]pyridin-3-ylmethyl)-pyrimidin-2-yl]-amine]",< 1000,< 1000
"CSc1ccc(Nc2ncc(Cc3c[nH]c4ncc(C)cc34)cn2)cc1 [Compound P-3033, [5-(5-Methyl-1H-pyrrolo[2,3-b]pyridin-3-ylmethyl)-pyrimidin-2-yl]-(4-methylsulfanyl-phenyl)-amine]",< 10,< 10
"Cc1cnc2[nH]cc(Cc3cnc(Nc4ccc(S(C)(=O)=O)cc4)nc3)c2c1 [Compound P-3034, (4-Methanesulfonyl-phenyl)-[5-(5-methyl-1H-pyrrolo[2,3-b]pyridin-3-ylmethyl)-pyrimidin-2-yl]-amine]",< 100,< 100
"CCn1ccc(Nc2ncc(Cc3c[nH]c4ncc(C)cc34)cn2)n1 [Compound P-3035, (1-Ethyl-1H-pyrazol-3-yl)-[5-(5-methyl-1H-pyrrolo[2,3-b]pyridin-3-ylmethyl)-pyrimidin-2-yl]-amine]",< 100,< 1000
"CCn1cc(Nc2ncc(Cc3c[nH]c4ncc(C)cc34)cn2)cn1 [Compound P-3036, (1-Ethyl-1H-pyrazol-4-yl)-[5-(5-methyl-1H-pyrrolo[2,3-b]pyridin-3-ylmethyl)-pyrimidin-2-yl]-amine]",< 100,< 100
"Cc1cnc2[nH]cc(Cc3cnc(Nc4cc(C(F)(F)F)n[nH]4)nc3)c2c1 [Compound P-3037, [5-(5-Methyl-1H-pyrrolo[2,3-b]pyridin-3-ylmethyl)-pyrimidin-2-yl]-(5-trifluoromethyl-2H-pyrazol-3-yl)-amine]",< 1000,> 1000
"Cc1cnc2[nH]cc(Cc3cnc(Nc4cc(OC(C)C)n[nH]4)nc3)c2c1 [Compound P-3038, (5-Isopropoxy-2H-pyrazol-3-yl)-[5-(5-methyl-1H-pyrrolo[2,3-b]pyridin-3-ylmethyl)-pyrimidin-2-yl]-amine]",< 1000,< 1000
"CCOc1ccc(Nc2ccc(Cc3c[nH]c4ncc(C)cc34)c(F)n2)cn1 [Compound P-3039, (6-ethoxy-pyridin-3-yl)-[6-fluoro-5-(5-methyl-1H-pyrrolo[2,3-b]pyridin-3-ylmethyl)-pyridin-2-yl]-amine]",< 100,< 1000
"COc1ccc(Nc2ccc(C(=O)c3c[nH]c4ncc(C)cc34)c(F)n2)cn1 [Compound P-3040, [2-Fluoro-6-(6-methoxy-pyridin-3-ylamino)-pyridin-3-yl]-(5-methyl-1H-pyrrolo[2,3-b]pyridin-3-yl)-methanone]",> 1000,> 1000
"Cc1cnc2[nH]cc(Cc3ccc(Nc4ccc(C)nc4)nc3F)c2c1 [Compound P-3041, [6-Fluoro-5-(5-methyl-1H-pyrrolo[2,3-b]pyridin-3-ylmethyl)-pyridin-2-yl]-(6-methyl-pyridin-3-yl)-amine]",< 1000,< 1000
"O=C(c1ccc(Nc2ccc(C3CC3)nc2)nc1F)c1c[nH]c2ncccc12 [Compound P-3052, [6-(6-Cyclopropyl-pyridin-3-ylamino)-2-fluoro-pyridin-3-yl]-(1H-pyrrolo[2,3-b]pyridin-3-yl)-methanone]",< 100,–
"Fc1nc(Nc2ccc(C3CC3)nc2)ccc1Cc1c[nH]c2ncccc12 [Compound P-3053, (6-Cyclopropyl-pyridin-3-yl)-[6-fluoro-5-(1H-pyrrolo[2,3-b]pyridin-3-ylmethyl)-pyridin-2-yl]-amine]",< 100,–
